Measured values from US6737383B1, “Herbicidal oxadiazolidines” (priority 1999, dated 2004).

Legend:
blackgrass = test: Test B pre/postemergence blackgrass; assay type: in vivo, Alopecurus myosuroides
Procedure, shortened: (§1)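 Herbicidal effect was estimated by eye on a ten-point control scale after plants spent twelve to sixteen days in a greenhouse following soil or foliar treatment. Foliar sprays targeted plants at one to four leaves; all doses were formulated in a non-phytotoxic solvent with surfactant.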

surinam grass = test: Test B pre/postemergence surinam grass; assay type: in vivo, Brachiaria decumbens; settings: for Plant response rating, B. signalgrass: Postemergence; for B. signalgrass plant response rating: Preemergence
Procedure, shortened: as §1

cocklebur = test: Test B pre/postemergence cocklebur; assay type: in vivo, Xanthium strumarium
Procedure, shortened: as §1

corn = test: Test B pre/postemergence corn; assay type: in vivo, Zea mays
Procedure, shortened: as §1

crabgrass = test: Test B pre/postemergence crabgrass; assay type: in vivo, Digitaria sanguinalis
Procedure, shortened: as §1

giant foxtail = test: Test B pre/postemergence giant foxtail; assay type: in vivo, Setaria faberii
Procedure, shortened: as §1

morningglory = test: Test B pre/postemergence morningglory; assay type: in vivo, Ipomoea hederacea
Procedure, shortened: as §1

pigweed = test: Test B pre/postemergence pigweed; assay type: in vivo, Amaranthus retroflexus
Procedure, shortened: as §1

rape = test: Test B pre/postemergence rape; assay type: in vivo, Brassica napus
Procedure, shortened: as §1

soybean = test: Test B pre/postemergence soybean; assay type: in vivo, Glycine max
Procedure, shortened: as §1

sugar beet = test: Test B pre/postemergence sugar beet; assay type: in vivo, Beta vulgaris
Procedure, shortened: as §1

velvetleaf = test: Test B pre/postemergence velvetleaf; assay type: in vivo, Abutilon theophrasti
Procedure, shortened: as §1

wheat = test: Test B pre/postemergence wheat; assay type: in vivo, Triticum aestivum
Procedure, shortened: as §1

wild oat = test: Test B pre/postemergence wild oat; assay type: in vivo, Avena fatua
Procedure, shortened: as §1

purple nutsedge = test: Test B pre/postemergence purple nutsedge; assay type: in vivo, Cyperus rotundus
Procedure, shortened: as §1

rice = test: Test B flood test rice; assay type: in vivo, Oryza sativa
Procedure, shortened: (§2)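 Each value is a visual injury score relative to controls, with 10 meaning complete control and 0 no effect. Evaluation took place twelve to sixteen days after the 2-leaf-stage plants were treated and kept in the greenhouse.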

smallflower flatsedge = test: Test B flood test smallflower flatsedge; assay type: in vivo, Cyperus difformis
Procedure, shortened: as §2

duck salad = test: Test B flood test duck salad; assay type: in vivo, Heteranthera limosa
Procedure, shortened: as §2

bamyardgrass = test: Test B flood test barnyardgrass; assay type: in vivo, Echinochloa crus-galli
Procedure, shortened: as §2

[1] = Postemergence, Rate 62 g/ha, scale 0 to 10, 0 is no effect, 10 is complete control
[2] = Postemergence, Rate 125 g/ha, scale of 0 to 10 where 0 is no effect and 10 is complete control
[3] = Postemergence, Rate 250 g/ha, scale of 0 to 10, 0 is no effect, 10 is complete control
[4] = Postemergence, Rate 500 g/ha, scale of 0 to 10 where 0 is no effect and 10 is complete control
[5] = Preemergence, Rate 62 g/ha, scale 0 to 10 (0 no effect, 10 complete control)
[6] = Preemergence, Rate 125 g/ha, scale of 0 to 10 where 0 is no effect and 10 is complete control
[7] = Preemergence, Rate 500 g/ha, scale of 0 to 10 where 0 is no effect and 10 is complete control
[8] = Rate 125 g/ha, scale of 0 to 10 where 0 is no effect and 10 is complete control
[9] = Rate 500 g/ha, scale of 0 to 10 where 0 is no effect and 10 is complete control
[10] = Rate 62 g/ha, flood test species, Pre-emergence, visual evaluation after twelve to sixteen days
[11] = Rate 125 g/ha, under heading Pre-emergence, flood test species, visual evaluation after twelve to sixteen days
[12] = Rate 250 g/ha, Pre-emergence (flood test species), scale 0 to 10, 0 is no effect, 10 is complete control
[13] = Rate 500 g/ha, Pre-emergence section of Table B, 0 to 10 scale (0 no effect, 10 complete control)

C=C(Cl)Cn1c(=O)on(C(=O)N(c2ccccc2)C(C)C)c1=O [Compound 608]
Plant response rating, Blackgrass (blackgrass; [1]): 4 | Plant response rating, Blackgrass (blackgrass; [2]): 6 | Blackgrass plant response rating (blackgrass; [3]): 8 | Plant response rating, Blackgrass (blackgrass; [4]): 9 | Blackgrass plant response rating (blackgrass; [5]): 2 | Blackgrass plant response rating (blackgrass; [6]): 5 | Blackgrass plant response rating (0 to 10 scale) (blackgrass; Preemergence, Rate 250 g/ha): 7 | Blackgrass plant response rating (blackgrass; [7]): 9 | Plant response rating, B. signalgrass (surinam grass; Rate 62 g/ha, scale 0 to 10, 0 is no effect, 10 is complete control): 3 | Plant response rating, B. signalgrass (surinam grass; [8]): 10 | Plant response rating, B. signalgrass (surinam grass; [9]): 10 | B. signalgrass plant response rating (surinam grass; Rate 62 g/ha, scale 0 to 10 (0 no effect, 10 complete control)): 1 | B. signalgrass plant response rating (surinam grass; [8]): 10 | B. signalgrass plant response rating (surinam grass; [9]): 10 | Plant response rating, Cocklebur (cocklebur; [1]): 0 | Plant response rating, Cocklebur (cocklebur; [2]): 0 | Cocklebur plant response rating (cocklebur; [3]): 0 | Plant response rating, Cocklebur (cocklebur; [4]): 0 | Cocklebur plant response rating (cocklebur; [5]): 0 | Cocklebur plant response rating (cocklebur; [6]): 0 | Cocklebur plant response rating (0 to 10 scale) (cocklebur; Preemergence, Rate 250 g/ha): 0 | Plant response rating, Cocklebur (cocklebur; [7]): 0 | Plant response rating, Corn (corn; [1]): 0 | Plant response rating, Corn (corn; [2]): 0 | Corn plant response rating (corn; [3]): 0 | Plant response rating, Corn (corn; [4]): 0 | Corn plant response rating (corn; [5]): 0 | Corn plant response rating (corn; [6]): 0 | Corn plant response rating (0 to 10 scale) (corn; Preemergence, Rate 250 g/ha): 0 | Plant response rating, Corn (corn; [7]): 1 | Plant response rating, Crabgrass (crabgrass; [1]): 3 | Plant response rating, Crabgrass (crabgrass; [2]): 3 | Crabgrass plant response rating (crabgrass; [3]): 7 | Plant response rating, Crabgrass (crabgrass; [4]): 7 | Crabgrass plant response rating (crabgrass; [5]): 7 | Crabgrass plant response rating (crabgrass; [6]): 9 | Plant response rating, Crabgrass (crabgrass; [7]): 10 | Plant response rating, Giant foxtail (giant foxtail; [1]): 5 | Plant response rating, Giant foxtail (giant foxtail; [2]): 7 | Giant foxtail plant response rating (giant foxtail; [3]): 7 | Plant response rating, Giant foxtail (giant foxtail; [4]): 9 | Giant foxtail plant response rating (giant foxtail; [5]): 9 | Giant foxtail plant response rating (giant foxtail; [6]): 10 | Plant response rating, Giant foxtail (giant foxtail; [7]): 10 | Plant response rating, Morningglory (morningglory; [1]): 0 | Plant response rating, Morningglory (morningglory; [2]): 7 | Morningglory plant response rating (morningglory; [3]): 8 | Plant response rating, Morningglory (morningglory; [4]): 10 | Morningglory plant response rating (morningglory; [5]): 0 | Morningglory plant response rating (morningglory; [6]): 0 | Plant response rating, Morningglory (morningglory; [7]): 4 | Plant response rating, Redroot pigweed (pigweed; [1]): 3 | Plant response rating, Redroot pigweed (pigweed; [2]): 5 | Redroot pigweed plant response rating (pigweed; [3]): 7 | Plant response rating, Redroot pigweed (pigweed; [4]): 8 | Redroot pigweed plant response rating (pigweed; [5]): 5 | Redroot pigweed plant response rating (pigweed; [6]): 5 | Plant response rating, Redroot pigweed (pigweed; [7]): 7 | Plant response rating, Rape (rape; [1]): 1 | Plant response rating, Rape (rape; [2]): 5 | Rape plant response rating (rape; [3]): 5 | Plant response rating, Rape (rape; [4]): 7 | Rape plant response rating (rape; [5]): 1 | Rape plant response rating (rape; [6]): 5 | Plant response rating, Rape (rape; [7]): 7 | Plant response rating, Soybean (soybean; [1]): 3 | Plant response rating, Soybean (soybean; [2]): 4 | Soybean plant response rating (soybean; [3]): 4 | Soybean plant response rating (soybean; [5]): 0 | Soybean plant response rating (soybean; [6]): 0 | Plant response rating, Soybean (soybean; [7]): 4 | Plant response rating, Sugarbeets (sugar beet; [1]): 0 | Plant response rating, Sugarbeets (sugar beet; [2]): 5 | Sugarbeets plant response rating (sugar beet; [3]): 5 | Plant response rating, Sugarbeets (sugar beet; [4]): 5 | Sugarbeets plant response rating (sugar beet; [5]): 0 | Sugarbeets plant response rating (sugar beet; [6]): 0 | Plant response rating, Sugarbeets (sugar beet; [7]): 4 | Plant response rating, Velvetleaf (velvetleaf; [1]): 0 | Plant response rating, Velvetleaf (velvetleaf; [2]): 0 | Velvetleaf plant response rating (velvetleaf; [3]): 4 | Plant response rating, Velvetleaf (velvetleaf; [4]): 6 | Velvetleaf plant response rating (velvetleaf; [5]): 0 | Velvetleaf plant response rating (velvetleaf; [6]): 4 | Plant response rating, Velvetleaf (velvetleaf; [7]): 7 | Plant response rating, Wheat (wheat; [1]): 0 | Wheat plant response rating (wheat; [3]): 0 | Plant response rating, Wheat (wheat; [4]): 0 | Wheat plant response rating (wheat; [5]): 0 | Wheat plant response rating (wheat; [6]): 0 | Plant response rating, Wheat (wheat; [7]): 0 | Plant response rating, Wild oats (wild oat; [1]): 3 | Plant response rating, Wild oats (wild oat; [2]): 4 | Wild oats plant response rating (wild oat; [3]): 5 | Plant response rating, Wild oats (wild oat; [4]): 6 | Wild oats plant response rating (wild oat; [5]): 0 | Wild oats plant response rating (wild oat; [6]): 3 | Plant response rating, Wild oats (wild oat; [7]): 6 | Plant response rating, Nutsedge (purple nutsedge; [1]): 0 | Plant response rating, Nutsedge (purple nutsedge; [2]): 0 | Nutsedge plant response rating (purple nutsedge; [3]): 0 | Nutsedge plant response rating (purple nutsedge; [6]): 0 | Plant response rating, Nutsedge (purple nutsedge; [7]): 0 | Plant response rating, Rice (0 to 10 scale, 0 is no effect, 10 is complete control) (rice; [10]): 0 | Rice plant response rating (0 to 10 scale, 0 is no effect, 10 is complete control) (rice; [11]): 0 | Rice plant response rating (rice; [12]): 0 | Rice plant response rating (rice; [13]): 0 | Plant response rating, S. Flatsedge (0 to 10 scale, 0 is no effect, 10 is complete control) (smallflower flatsedge; [10]): 0 | S. Flatsedge plant response rating (0 to 10 scale, 0 is no effect, 10 is complete control) (smallflower flatsedge; [11]): 0 | S. Flatsedge plant response rating (smallflower flatsedge; [12]): 0 | S. Flatsedge plant response rating (smallflower flatsedge; [13]): 0 | Plant response rating, Ducksalad (0 to 10 scale, 0 is no effect, 10 is complete control) (duck salad; [10]): 0 | Ducksalad plant response rating (0 to 10 scale, 0 is no effect, 10 is complete control) (duck salad; [11]): 0 | Ducksalad plant response rating (duck salad; [12]): 0 | Ducksalad plant response rating (duck salad; [13]): 0 | Plant response rating, Barnyardgrass (0 to 10 scale, 0 is no effect, 10 is complete control) (bamyardgrass; [10]): 0 | Barnyardgrass plant response rating (0 to 10 scale, 0 is no effect, 10 is complete control) (bamyardgrass; [11]): 0 | Barnyardgrass plant response rating (bamyardgrass; [12]): 0 | Barnyardgrass plant response rating (bamyardgrass; [13]): 0
